Experimental data reported in ChEMBL document CHEMBL4419167, “Compositions and methods for treating respiratory injury or disease” (2018).
Calls of active or inactive are those of the source.

Assays:
Format in all cases: functional, organism-based
[1] = system: Mus musculus; test: Suppression of smoke-induced chronic lung inflammation in mouse assessed as reduction in lavage IFNgamma levels at 100 ug, ip administered as single dose injected after 5 weeks cigarette smoke exposure
[2] = system: Mus musculus; test: Suppression of lung injury in mouse model of Pseudomonas aeruginosa PA103 infection-induced pneumonia assessed as reduction in lavage cell counts at 30 or 150 ug, ip pre-treated before infection
[3] = system: Mus musculus; test: Suppression of lung injury in mouse model of Pseudomonas aeruginosa PA103 infection-induced pneumonia assessed as reduction in lavage protein concentration at 30 or 150 ug, ip pre-treated before infection
[4] = system: Mus musculus; test: Suppression of IMQ-induced psoriasis in BALB/c mouse model of skin inflammation assessed as reduction in psoriasis index at 1 or 5 mg/kg dosed via drinking water on daily basis
[5] = system: Mus musculus; test: Suppression of IMQ-induced psoriasis in BALB/c mouse model of skin inflammation assessed as effect on gross appearance at 1 or 5 mg/kg applied topically on daily basis
[6] = system: Mus musculus; test: Suppression of smoke-induced chronic lung inflammation in mouse assessed as reduction in lavage IL-1beta levels at 100 ug, ip administered as single dose injected after 5 weeks cigarette smoke exposure
[7] = system: Mus musculus; test: Suppression of lung injury in mouse model of Pseudomonas aeruginosa PA103 infection-induced pneumonia assessed as reduction in lavage IL6 levels at 30 or 150 ug, ip pre-treated before infection
[8] = system: Mus musculus; test: Suppression of dexamethasone-induced muscle atrophy in C57BL mouse assessed as reduction in TRAF6 protein in TA muscle at 0.5 to 5 mg/kg/day dosed via drinking water by immunoblotting analysis
[9] = system: Mus musculus; test: Suppression of IMQ-induced psoriasis in BALB/c mouse model of skin inflammation assessed as effect on gross appearance at 1 or 5 mg/kg dosed via drinking water on daily basis
[10] = system: Mus musculus; test: Suppression of smoke-induced chronic lung inflammation in mouse assessed as reduction in lavage IL2 levels at 100 ug, ip administered as single dose injected after 5 weeks cigarette smoke exposure
[11] = system: Mus musculus; test: Suppression of smoke-induced chronic lung inflammation in mouse assessed as reduction in lavage IL6 levels at 100 ug, ip administered as single dose injected after 5 weeks cigarette smoke exposure
[12] = system: Mus musculus; test: Suppression of IMQ-induced psoriasis in BALB/c mouse model of skin inflammation assessed as reduction in psoriasis index at 1 or 5 mg/kg applied topically on daily basis
[13] = system: Mus musculus; test: Suppression of lung injury in mouse model of Pseudomonas aeruginosa PA103 infection-induced pneumonia assessed as reduction in cell infiltration at 30 or 150 ug, ip pre-treated before infection by H and E staining based assay
[14] = system: Mus musculus; test: Suppression of lung injury in mouse model of Pseudomonas aeruginosa PA103 infection-induced pneumonia assessed as reduction in lavage IL-1beta levels at 30 or 150 ug, ip pre-treated before infection
[15] = system: Mus musculus; test: Suppression of smoke-induced chronic lung inflammation in mouse assessed as reduction in lavage TNFalpha levels at 100 ug, ip administered as single dose injected after 5 weeks cigarette smoke exposure
[16] = system: Mus musculus; test: Suppression of smoke-induced chronic lung inflammation in mouse assessed as reduction in lavage IL10 levels at 100 ug, ip administered as single dose injected after 5 weeks cigarette smoke exposure
[17] = system: Mus musculus; test: Suppression of smoke-induced chronic lung inflammation in mouse assessed as reduction in lavage IL12 levels at 100 ug, ip administered as single dose injected after 5 weeks cigarette smoke exposure
[18] = system: Mus musculus; test: Suppression of IMQ-induced psoriasis in BALB/c mouse model of skin inflammation assessed as reduction in spleen weight at 1 or 5 mg/kg dosed via drinking water on daily basis
[19] = system: Mus musculus; test: Suppression of IMQ-induced psoriasis in BALB/c mouse model of skin inflammation assessed as reduction in ear thickness at 1 or 5 mg/kg dosed via drinking water on daily basis
[20] = system: Mus musculus; test: Suppression of lung injury in mouse model of Pseudomonas aeruginosa PA103 infection-induced pneumonia assessed as reduction in neutrophil infiltration at 30 or 150 ug, ip pre-treated before infection by May-Grunwald and Geimsa staining based assay
[21] = system: Mus musculus; test: Suppression of dexamethasone-induced muscle atrophy in C57BL mouse assessed as reduction in tibialis anterior muscle loss at 0.5 to 5 mg/kg/day dosed via drinking water
[22] = system: Mus musculus; test: Suppression of IMQ-induced psoriasis in BALB/c mouse model of skin inflammation assessed as reduction in ear thickness at 1 or 5 mg/kg applied topically on daily basis
[23] = system: Mus musculus; test: Suppression of IMQ-induced psoriasis in BALB/c mouse model of skin inflammation assessed as reduction in spleen weight at 1 or 5 mg/kg applied topically on daily basis
[24] = system: Mus musculus; test: Suppression of dexamethasone-induced muscle atrophy in C57BL mouse assessed as prevention of muscle wasting in TA muscle at 0.5 to 5 mg/kg/day dosed via drinking water by H and E staining based assay
[25] = system: Mus musculus; test: Suppression of smoke-induced chronic lung inflammation in mouse assessed as reduction in lavage cell counts at 100 ug, ip administered as single dose injected after 5 weeks cigarette smoke exposure
[26] = system: Mus musculus; test: Suppression of smoke-induced chronic lung inflammation in mouse assessed as reduction in lavage protein concentration at 100 ug, ip administered as single dose injected after 5 weeks cigarette smoke exposure
[27] = system: Mus musculus; test: Antiinflammatory activity in C57/BL mouse model of lung transplant acute rejection transplanted with BALB/C mouse left lung assessed as amelioration of neutrophilia infiltration at 5 mg/kg/day, ip for 2 days followed by dosing at 5 mg/kg/day via drinking water for 5 days
[28] = system: Mus musculus; test: Suppression of lung injury in mouse model of Pseudomonas aeruginosa PA103 infection-induced pneumonia assessed as reduction in lavage TNFalpha levels at 30 or 150 ug, ip pre-treated before infection
[29] = system: Mus musculus; test: Antiinflammatory activity in C57/BL mouse model of lung transplant acute rejection transplanted with BALB/C mouse left lung assessed as reduction in cell infiltration in lung at 5 mg/kg/day, ip for 2 days followed by dosing at 5 mg/kg/day via drinking water for 5 days
[30] = system: Mus musculus; test: Suppression of lung injury in mouse model of influenza A virus H1N1 infection-induced lung injury assessed as decrease in lavage cell counts at 30 ug/ml dosed via drinking water
[31] = system: Mus musculus; test: Suppression of lung injury in mouse model of Pseudomonas aeruginosa PA103 infection-induced lung injury assessed as reduction in lavage protein concentration at 100 ug, ip pre-treated before infection
[32] = system: Mus musculus; test: Suppression of lung injury in mouse model of Pseudomonas aeruginosa PA103 infection-induced lung injury assessed as reduction in lavage IL-1beta levels at 100 ug, ip pre-treated before infection
[33] = system: Mus musculus; test: Suppression of lung injury in mouse model of influenza A virus H1N1 infection-induced lung injury assessed as decrease in lung edema at 30 ug/ml dosed via drinking water
[34] = system: Mus musculus; test: Suppression of lung injury in mouse model of Pseudomonas aeruginosa PA103 infection-induced lung injury assessed as reduction in lavage cell counts at 100 ug, ip pre-treated before infection
[35] = system: Mus musculus; test: Suppression of lung injury in mouse model of influenza A virus H1N1 infection-induced lung injury assessed as increase in mouse survival at 30 ug/ml dosed via drinking water
[36] = system: Mus musculus; test: Suppression of lung injury in mouse model of Pseudomonas aeruginosa PA103 infection-induced lung injury assessed as reduction in lung elastance at 100 ug, ip pre-treated before infection
[37] = system: Mus musculus; test: Suppression of lung injury in mouse model of influenza A virus H1N1 infection-induced lung injury assessed as decrease in lung elastance at 30 ug/ml dosed via drinking water
[38] = system: Mus musculus; test: Suppression of lung injury in mouse model of Pseudomonas aeruginosa PA103 infection-induced lung injury assessed as improve in lung volume at 100 ug, ip pre-treated before infection
[39] = system: Mus musculus; test: Suppression of lung injury in mouse model of Pseudomonas aeruginosa PA103 infection-induced lung injury assessed as reduction in lavage IL6 levels at 100 ug, ip pre-treated before infection
[40] = system: Mus musculus; test: Suppression of lung injury in mouse model of Pseudomonas aeruginosa PA103 infection-induced lung injury assessed as reduction in lavage TNFalpha levels at 100 ug, ip pre-treated before infection
[41] = system: Mus musculus; test: Suppression of lung injury in mouse model of influenza A virus H1N1 infection-induced lung injury assessed as decrease in cell infiltration at 30 ug/ml dosed via drinking water by H and E staining based assay
[42] = system: Mus musculus; test: Suppression of lung injury in mouse model of influenza A virus H1N1 infection-induced lung injury assessed as decrease in lavage protein concentration at 30 ug/ml dosed via drinking water
[43] = system: Mus musculus; test: Suppression of lung injury in mouse model of influenza A virus H1N1 infection-induced lung injury assessed as increase in lung compliance at 30 ug/ml dosed via drinking water
[44] = system: Mus musculus; test: Suppression of lung injury in mouse model of Pseudomonas aeruginosa PA103 infection-induced lung injury assessed as increase in compliance at 100 ug, ip pre-treated before infection
[45] = system: Mus musculus; test: Suppression of lung injury in mouse model of Pseudomonas aeruginosa PA103 infection-induced lung injury assessed as reduction in lung resistance at 100 ug, ip pre-treated before infection
[46] = system: Mus musculus; test: Suppression of lung injury in mouse model of Pseudomonas aeruginosa PA103 infection-induced lung injury assessed as reduction in cell infiltration at 100 ug, ip pre-treated before infection by H and E staining based assay

Measured: Activity

c1cnc(-c2ccc(CNCCNCc3ccc(-c4ncccn4)cc3)cc2)nc1
not listed: [30] | [31] | [32] | [33] | [34] | [35] | [36] | [37] | [38] | [39] | [40] | [41] | [42] | [43] | [44] | [45] | [46]
active: all other assays above

c1ccc(-c2ccc(CNCCNCc3ccc(-c4ccccn4)cc3)cc2)nc1
active: [30] | [31] | [32] | [33] | [34] | [35] | [36] | [37] | [38] | [39] | [40] | [41] | [42] | [43] | [44] | [45] | [46]
